Laboratory results taken from patent US20150025002A1, “PEPTIDES AND PEPTIDE DERIVATIVES BASED ON XENIN” (UNIVERSITY OF ULSTER, priority 2012, published 2015).
Square brackets hold non-standard residues; d marks the D form. Ends that are not written are not given here.

Legend:
BRIN-BD11 cells = test: In vitro insulin secretion in BRIN-BD11 cells (radioimmunoassay); assay type: cell-based, rat; details: 5.6 mM glucose; for insulin secretion compared to glucose alone, FIG. 1b experiment: P<0.05 to P<0.001
Description: BRIN-BD11 cells (ECACC accession number 100330033) were cultured in RPMI 1640 tissue culture medium containing 10% (v/v) foetal calf serum, 1% (v/v) antibiotics (100 U/ml of penicillin and 0.1 mg/ml of streptomycin). BRIN-BD11 cells were originally derived by means of electrofusion of a New England Deaconess Hospital (NEDH) rat pancreatic beta-cell line with an RINm5F cell line in order to produce an immortal, glucose sensitive, insulin secreting cell line (McClenaghan etal., Diabetes. 1996 August; 45(8):1132-40). All cells were maintained in sterile tissue culture flasks (Corning Glass Works, Corning, N.Y., USA) at 37° C. in an atmosphere of 5% CO2 and 95% air, using an LEEC incubator (Laboratory Technical Engineering, Nottingham, UK).
BRIN-BD11 cells were seeded into 24-well plates at a density of 1×10^5 cells and allowed to attach to the wells overnight in an incubator. Before acute studies of insulin were carried out, the cells underwent a 40 min preincubation period at 37° C. with 1.0 ml of Krebs Ringer bicarbonate buffer (115 mM NaCl, 4.7 mM KCl, 1.28 mM CaCl2.2H2O, 1.2 mM KH2PO4, 1.2 mM MgSO4.7H2O, 10 mM NaHCO3, 5 g/l bovine serum albumin (BSA), pH 7.4) supplemented with 1.1 mM glucose. […] The incubations were performed for 20 min at 37° C., after which the buffer solution was removed and 2×200 μl aliquots stored at −20° C. until measurement of insulin levels by radioimmunoassay (RIA).

high fat fed mice = test: Acute glucose homeostasis and insulin secretion in high fat fed mice; assay type: in vivo; details: 25 nmol/kg i.p. with glucose 18 mmol/kg
Description: (§1) NIH Swiss male mice (6 weeks old) were housed in an air conditioned room 22±2° C. with a 12 h light: 12 h dark cycle. Animals were maintained on a high fat diet 16 weeks prior to commencement and throughout the study. Drinking water and high fat diet was freely available. All animal studies were performed in accordance with the UK Animals (Scientific Procedures) Act 1986 under project licences held by the inventor.
Freely fed animals were divided into weight-matched groups (n=8) and administered, by intraperitoneal injection, glucose alone (18 mmol/kg body weight) or glucose in combination with each peptide (25 nmol/kg body weight). Blood samples were collected immediately prior to (t=0) and 15, 30 and 60 min post-injection. Whole blood was used to measure glucose values using an Acensia CONTOUR Microfill Blood Glucose Meter and Acensia MICROFILL test strips (Bayer Healthcare, UK). Blood samples for measurement of insulin was collected into fluorine/heparin microcentrifuge tubes (Sarstedt, Numbercht, Germany) at times indicated above and immediately centrifuged using a Beckman microcentrifuge (Beckman Instruments, UK) for 5 min at 13,000 g. Plasma was then aliquoted and stored at −20° C. prior to insulin determination by RIA.

high-fat fed mice = test: Persistent glucose-lowering in high-fat fed mice, peptide given 4 hours before glucose load; assay type: in vivo; details: 25 nmol/kg i.p. 4 hours before glucose load
Description: as §1
Freely fed animals were divided into weight-matched groups (n=8) and administered, by intraperitoneal injection, saline vehicle (0.9% NaCl) or saline in combination with each peptide (25 nmol/kg body weight). Food was then immediately withdrawn and 4 hours later all mice received an intraperitoneal injection of glucose alone (18 mmol/kg body weight). Blood samples were collected immediately prior to (t=0) and 15, 30 and 60 min post glucose injection. Whole blood was used to measure glucose values using an Acensia CONTOUR Microfill Blood Glucose Meter and Acensia MICROFILL test strips (Bayer Healthcare, UK).

[1] = biological target: Dipeptidyl peptidase-4 (DPP-4) (Homo sapiens, UniProt P27487); details: pH 7.8
Description: Dipeptidyl peptidase-4 (DPP-4) was used to determine the degradation properties and identify any degradation products. Each peptide (30 μg) was incubated at 37° C. DPP-4 with 455 μl 50 mM triethanolamine-HCl (TEA) pH 7.8 buffer, and the reaction was stopped with 5 μl 10% (v/v) TFA. Time 0, 15, 30, 60, 120, 240 and 480 minutes degradation profiles were measured and HPLC was carried out to identify the degradation pattern and degradation products.

[2] = Incubation in the presence of murine plasma (MALDI-ToF MS, ESI MS); details: 37° C., 50 mM TEA-HCl pH 7.8, up to 24 hours
Description: MALDI-ToF Mass Spectrometry: Following solid phase extraction, samples for each degradation time-point were subsequently mixed with α-cyano-4-hydroxycinnamic acid and applied to a Voyager-DE BioSpectrometry Workstation and mass-to-charge (m/z) ratio verses peak intensity recorded.
ESI Mass Spectrometry: Samples for each degradation time-point were applied to the ESI Ion-trap MS/MS utilizing a mass-to-charge range (m/z) of 0-2000. Resulting mass spectra were analyzed with the turbo sequest algorithm and degradation fragments sequenced against a fasta database containing the native xenin sequence.

Chain of Dipeptidyl peptidase-4 (DPP-4) (P27487 whole entry, species assumed): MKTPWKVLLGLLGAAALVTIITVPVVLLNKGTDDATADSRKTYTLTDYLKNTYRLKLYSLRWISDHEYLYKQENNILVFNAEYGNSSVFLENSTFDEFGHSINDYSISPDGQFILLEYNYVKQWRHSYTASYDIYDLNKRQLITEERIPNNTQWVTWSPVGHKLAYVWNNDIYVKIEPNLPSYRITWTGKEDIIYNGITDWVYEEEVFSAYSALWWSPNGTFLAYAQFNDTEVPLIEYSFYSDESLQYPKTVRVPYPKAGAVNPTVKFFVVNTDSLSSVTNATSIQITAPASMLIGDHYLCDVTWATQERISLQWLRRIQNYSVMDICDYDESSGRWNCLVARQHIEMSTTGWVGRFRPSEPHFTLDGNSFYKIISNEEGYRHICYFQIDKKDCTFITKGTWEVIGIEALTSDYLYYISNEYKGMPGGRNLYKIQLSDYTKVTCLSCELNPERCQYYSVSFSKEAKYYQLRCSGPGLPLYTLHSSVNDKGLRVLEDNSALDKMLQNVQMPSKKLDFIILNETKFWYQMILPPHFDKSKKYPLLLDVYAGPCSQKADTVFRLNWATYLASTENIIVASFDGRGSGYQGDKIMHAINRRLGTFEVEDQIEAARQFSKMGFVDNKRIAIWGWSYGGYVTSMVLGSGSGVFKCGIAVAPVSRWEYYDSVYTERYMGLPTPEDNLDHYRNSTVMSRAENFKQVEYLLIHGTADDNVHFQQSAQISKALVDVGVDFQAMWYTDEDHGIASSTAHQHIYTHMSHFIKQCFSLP

Row | degradation in murine plasma [2] | Substance | insulin secretion compared to glucose alone, FIG. 1b experiment (BRIN-BD11 cells) | insulin secretion, peptide alone (BRIN-BD11 cells; 20 min, 10^-12 to 10^-6 M, FIG. 1a/1e) | insulin production compared to glucose alone, concentrations with significant effect (BRIN-BD11 cells; peptide alone, FIG. 1a/1e) | plasma glucose AUC vs glucose alone (high fat fed mice; 0-60 min) | plasma glucose excursion vs glucose alone (high fat fed mice; 0-60 min, FIG. 2a) | plasma insulin response vs glucose alone (high fat fed mice; FIG. 2b/2f) | effect on plasma glucose when administered 4 hours previously (high-fat fed mice) | degradation by DPP-IV [1]
1 |  | (D-Ala^2)GIP: YAEGTFISDYSIAMDKIHQQDFVNWLLAQKGKKNDWKHNITQ, alanine at position 2 is a D-amino acid (Y[dA]EGTFISDYSIAMDKIHQQDFVNWLLAQKGKKNDWKHNITQ) | significantly stimulated insulin secretion in a concentration-dependent manner |  |  |  |  |  |  | 
2 |  | MLTKFETKSARVKGLSFHPKRPWIL-OH [native xenin] | significantly stimulated insulin secretion in a concentration-dependent manner | stimulated insulin secretion in a concentration-dependent manner | significantly enhanced insulin production at concentrations of 10^−8 and 10^−6 M | failed to reach overall significance | not significantly different to animals receiving glucose alone | not significantly different to animals receiving glucose alone | did not elicit any significant effects on plasma glucose | completely resistant to degradation by DPP-IV
3 | stable in the presence of murine plasma | MLTQFETQSAQVQGLSFHPQQPWIL [xenin-Gln] |  |  |  |  |  |  |  | 
